Source: patent US11076595B2, “1-(n,n-disubstituted carbamoyl) 4-(substituted sulfonyl)triazolin-5-one derivative, 4-(n,n-disubstituted carbamoyl) 1-(substituted sulfonyl)triazolin-5-one derivative, and herbicide containing said derivative as active ingredient” (HOKKO CHEMICAL INDUSTRY CO., LTD., priority 2017, dated 2021)

What was measured:
Type in all cases: in vivo
Scirpus juncoides [1] = assay: Test Example 2: herbicidal effect test by treatment during growing period in paddy field; conditions: treatment 7 days after sowing, 120 g/10a, evaluated 14 days after treatment
Method in brief: (§1)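 Read-out is weed suppression (%), 1 − mean dry weight treated/untreated ×100, taken 14 days after treatment with duplicate plots. Treatment: water-diluted emulsifiable concentrate added dropwise to flooded paddy-soil pots 7 days post-sowing at 120 g active ingredient per 10 are.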

Lindernia pyxidaria [2] = assay: as above; conditions: treatment 7 days after sowing, 120 g/10a, evaluated 14 days after treatment
Method in brief: as §1

Echinochloa crus-galli [3] = assay: as above; conditions: treatment 7 days after sowing, 120 g/10a, evaluated 14 days after treatment
Method in brief: as §1

Monochoria vaginalis [4] = assay: as above; conditions: treatment 7 days after sowing, 120 g/10a, evaluated 14 days after treatment
Method in brief: as §1

Chenopodium album [5] = assay: Test Example 4: herbicidal effect test by foliage treatment in upland field; conditions: upland field foliage treatment 7 days after sowing; 120 g/10a; evaluated 14 days after treatment
Method: (§2) This test was performed with two replications per one formulation concentration plot, and 14 days after the formulation treatments, the weed suppression rate (%) was determined according to the following equation (Math. 1). Weed suppression rate (%)=(1−an average dry weight (g) of plants in treated plots/an average dry weight (g) of plants in untreated plots)×100 [Math. 1]
(§3) A pot having a size of 36 cm^2 was filled with field soil (alluvial soil) and after uniformly mixing the soil of the surface layer of 1 cm with 20 grains of each weed seed of crabgrass, Echinochloa crus-galli, Chenopodium album and Amaranthus viridis, the surface layer was pressed lightly. Seven days after the sowing, an emulsifiable concentrate prepared according to Formulation Example 5 by using the compound shown in Table 8 below was diluted with water, and the water-diluted formulation was sprayed on the soil surface at a ratio of 100 liter per 10 are. The application rate of the active ingredient, by conversion, corresponded to 120 g per 10 are. Fourteen days after the formulation treatment, the herbicidal effect was evaluated by the same criteria as in Test Example 1.

crabgrass [6] = assay: as above; conditions: upland field foliage treatment 7 days after sowing; 120 g/10a; evaluated 14 days after treatment
Method: as §2, §3

Echinochloa crus-galli [7] = assay: as above; conditions: upland field foliage treatment 7 days after sowing; 120 g/10a; evaluated 14 days after treatment
Method: as §2, §3

Amaranthus viridis [8] = assay: as above; conditions: upland field foliage treatment 7 days after sowing; 120 g/10a; evaluated 14 days after treatment
Method: as §2, §3

Scirpus juncoides [9] = assay: Test Example 1: herbicidal effect test by soil treatment in paddy field; conditions: 120 g/10a, paddy soil treatment just after sowing, 14 days after treatment
Method in brief: (§4)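 Pre-emergence paddy soil treatment: diluted emulsifiable concentrate, 120 g active ingredient/10 are, applied dropwise into ~3 cm flood water immediately post-sowing. Two replicates; dry-weight-based suppression % vs untreated, day 14, glasshouse.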

Lindernia pyxidaria [10] = assay: as above; conditions: 120 g/10a, paddy soil treatment just after sowing, 14 days after treatment
Method in brief: as §4

Echinochloa crus-galli [11] = assay: as above; conditions: 120 g/10a, paddy soil treatment just after sowing, 14 days after treatment
Method in brief: as §4

Monochoria vaginalis [12] = assay: as above; conditions: 120 g/10a, paddy soil treatment just after sowing, 14 days after treatment
Method in brief: as §4

Chenopodium album [13] = assay: Test Example 3: herbicidal effect test by soil treatment in upland field; conditions: upland field soil treatment 1 day after sowing; 120 g/10a; evaluated 14 days after treatment
Method: as §2
as §3, with “One day” for “Seven days”, “7” for “8”

crabgrass [14] = assay: as above; conditions: upland field soil treatment 1 day after sowing; 120 g/10a; evaluated 14 days after treatment
Method: as §2
as §3, with “One day” for “Seven days”, “7” for “8”

Echinochloa crus-galli [15] = assay: as above; conditions: upland field soil treatment 1 day after sowing; 120 g/10a; evaluated 14 days after treatment
Method: as §2
as §3, with “One day” for “Seven days”, “7” for “8”

Amaranthus viridis [16] = assay: as above; conditions: upland field soil treatment 1 day after sowing; 120 g/10a; evaluated 14 days after treatment
Method: as §2
as §3, with “One day” for “Seven days”, “7” for “8”

| Compound | weed suppression rate, Scirpus juncoides (Scirpus juncoides [1]) | weed suppression rate, Lindemia pyxidaria (Lindernia pyxidaria [2]) | weed suppression rate, Echinochloa crus-galli (Echinochloa crus-galli [3]) | weed suppression rate, Monochoria vaginalis (Monochoria vaginalis [4]) | herbicidal effect (weed suppression rate), Chenopodium album (Chenopodium album [5]) | herbicidal effect (weed suppression rate), Crabgrass (crabgrass [6]) | herbicidal effect (weed suppression rate), Echinochloa crus-galli (Echinochloa crus-galli [7]) | herbicidal effect (weed suppression rate), Amaranthus viridis (Amaranthus viridis [8]) | weed suppression rate, Scirpus juncoides (Scirpus juncoides [9]) | weed suppression rate, Lindemia pyxidaria (Lindernia pyxidaria [10]) | weed suppression rate, Echinochloa crus-galli (Echinochloa crus-galli [11]) | weed suppression rate, Monochoria vaginalis (Monochoria vaginalis [12]) | herbicidal effect (weed suppression rate), Chenopodium album (Chenopodium album [13]) | herbicidal effect (weed suppression rate), Crabgrass (crabgrass [14]) | herbicidal effect (weed suppression rate), Echinochloa crus-galli (Echinochloa crus-galli [15]) | herbicidal effect (weed suppression rate), Amaranthus viridis (Amaranthus viridis [16]) |
| --- | --- | --- | --- | --- | --- | --- | --- | --- | --- | --- | --- | --- | --- | --- | --- | --- |
| CC(C)N(C(=O)n1ncn(S(=O)(=O)C(C)C)c1=O)c1ccc(F)cc1F [Compound 1-65] | 90% | 90% | 100% | 90% | 80% | 90% | 80% | 90% | 100% | 100% | 100% | 100% | 90% | 100% | 100% | 80% |
| Cc1ccc(N(C(=O)n2ncn(S(=O)(=O)C3CC3)c2=O)C(C)C)c(F)c1 [Compound 1-221] | 90% | 80% | 90% | 80% | – | – | – | – | 90% | 90% | 90% | 90% | 80% | 90% | 80% | 90% |
| CC(C)N(C(=O)n1ncn(S(=O)(=O)C2CC2)c1=O)c1ccc(C(F)(F)F)cc1Cl [Compound 1-229] | 90% | 80% | 90% | 80% | – | – | – | – | 90% | 80% | 90% | 80% | 80% | 90% | 80% | 90% |
| CC(C)N(C(=O)n1ncn(S(=O)(=O)C(C)C)c1=O)c1ccc(F)nc1 [Compound 1-242] | – | – | – | – | – | – | – | – | – | – | – | – | 80% | 90% | 80% | 90% |
| CC(C)N(C(=O)n1ncn(S(=O)(=O)C2CCCCC2)c1=O)c1ccc(F)cc1F [Compound 1-306] | 90% | 100% | 100% | 100% | – | – | – | – | 100% | 100% | 100% | 100% | 80% | 90% | 80% | 90% |
| Cc1cc(F)ccc1N(C(=O)n1ncn(S(=O)(=O)C2CCCCC2)c1=O)C(C)C [Compound 1-319] | 80% | 80% | 100% | 90% | 70% | 80% | 70% | 70% | 100% | 80% | 100% | 80% | – | – | – | – |
| CC(C)N(C(=O)n1ncn(S(=O)(=O)N(C)C)c1=O)c1ccc(Cl)nc1Cl [Compound 1-1136] | 90% | 90% | 100% | 80% | 80% | 90% | 80% | 90% | 90% | 90% | 100% | 90% | – | – | – | – |
| CCN(C)S(=O)(=O)n1cnn(C(=O)N(c2ccc(F)cc2F)C(C)C)c1=O [Compound 1-1139] | 90% | 80% | 90% | 80% | – | – | – | – | 90% | 90% | 100% | 90% | 80% | 90% | 80% | 90% |
| CCN(CC)S(=O)(=O)n1cnn(C(=O)N(c2ccc(F)cc2F)C(C)C)c1=O [Compound 1-1140] | – | – | – | – | – | – | – | – | 90% | 80% | 90% | 80% | 80% | 90% | 80% | 90% |
| CC(C)CN(C)S(=O)(=O)n1cnn(C(=O)N(c2ccc(F)cc2F)C(C)C)c1=O [Compound 1-1142] | 90% | 80% | 90% | 80% | – | – | – | – | 80% | 80% | 100% | 80% | 80% | 90% | 80% | 90% |
| CC(C)N(C(=O)n1ncn(S(=O)(=O)N2CCCCC2)c1=O)c1ccc(F)cc1F [Compound 1-1143] | 90% | 80% | 90% | 80% | – | – | – | – | 90% | 80% | 90% | 80% | 80% | 90% | 80% | 90% |
| CC(C)N(C(=O)n1ncn(S(=O)(=O)C2CCOCC2)c1=O)c1ccc(F)cc1F [Compound 1-1150] | – | – | – | – | 80% | 90% | 80% | 90% | – | – | – | – | 100% | 100% | 100% | 100% |
